Experimental data: patent US20130065868A1, “ANXIOYTIC MARCGRAVIACEAE COMPOSITIONS CONTAINING BETULINIC ACID, BETULINIC ACID DERIVATIVES, AND METHODS” (UNIVERSITY OF OTTAWA, priority 2002, published 2013)

Columns and labels:
[1] = biological target: Histamine H3 (Homo sapiens, UniProt Q9Y5N1); assay: MDS Panlabs screen: Histamine H3; type: binding
Description: (§1) Tests were conducted by MDS Panlabs to determine whether any of the classical neurotransmitter systems or the peptidergic systems thought to play a role in anxiety are affected by betulinic acid.

[2] = biological target: DA transporter (Homo sapiens, UniProt Q01959); assay: MDS Panlabs screen: DA transporter; type: binding; details: Catecholamines
Description: as §1

[3] = system: Sprague-Dawley rats; assay: Fear-potentiated startle paradigm in rats; type: in vivo, rat
From the text: In this anxiety/fear paradigm, rats are first trained to associate a neutral stimulus (a light) with an aversive stimulus (an electric shock to the foot). […] However, when the acoustic stimulus is preceded by a fear cue (the light in this case), there is potentiation of their natural startle response. This potentiation of startle responses is thought to result from a classically conditioned increase in fear. Anxiolysis is inferred when there is a reduction in the magnitude of the fear-potentiated startle response.
The fear potentiated startle equipment (Med-Associates, St-Albans, Vt.) constituted (1) a pressure-sensitive platform upon which the animal is placed (in an enclosure with shock-grid floor), (2) Speakers and amplifier, to deliver acoustic stimulus, (3) Computer controlled light cue, and (4) a computerized interface to deliver the auditory and/or visual stimuli, and to record the magnitude of startle detected by the platform. The whole set up is housed in a sound attenuated and darkened chamber.
The experiment involved three phases; a training phase, a screening phase and the testing phase. […] The second or screening phase involved identifying the rats that learnt to associate the light cue with the shock, which was assessed by measuring their startle response in the absence and the presence of the fear cue. […]

[4] = system: adrenergic β; assay: MDS Panlabs screen: adrenergic β; type: binding; details: Catecholamines
Description: as §1

[5] = biological target: melanocortin MC4 (Homo sapiens, UniProt P32245); assay: MDS Panlabs screen: melanocortin MC4; type: binding; details: Peptides
Description: as §1

[6] = biological target: galanin GALR2 (Homo sapiens, UniProt O43603); assay: MDS Panlabs screen: galanin GALR2; type: binding; details: Peptides
Description: as §1

[7] = system: bombesin; assay: MDS Panlabs screen: bombesin; type: binding; details: Peptides
Description: as §1

[8] = biological target: COMT (Homo sapiens, UniProt P21964); assay: MDS Panlabs screen: COMT; type: biochemical; details: Catecholamines
Description: as §1

[9] = system: Sprague-Dawley rats; assay: Elevated plus-maze (EPM) test in rats; type: in vivo, rat; details: 1 mg/kg in peanut oil orally (gavage), 45-60 min after treatment, vs peanut oil (FIG. 3)
Description: The majority of tests described in the following examples were conducted on adult; male Sprague-Dawley rats (typically weighing ˜300-450 gm) were obtained from Charles River Canada, St. Constant, Quebec. They were individually housed in standard clear Plexiglas cages (24×30×18 cm) and maintained on a 12 hr light/dark cycle (7:00 A.M.-7:00 P.M. light phase) in a temperature and humidity controlled room. Unless indicated otherwise, animals had free access to water and maintained on a restricted diet of 5 pellets a day of Purina Lab Chow. All experimental procedures complied with the guidelines of the Canadian Council on Animal Care and were approved by the Research Ethics Committee at the University of Ottawa. […]
The EPM constitutes of a plus-shaped maze with two enclosed arms (or alleys; 50×10×40 cm) and two open arms (or planks; 50×10 cm), with a 10×10 cm central zone. […] To avoid distractions, the EPM was surrounded by black curtain and the subjects were monitored remotely, using a closed circuit camera mounted above the set-up.
The rats were randomly assigned to each of the drug conditions. […] Behaviours scored included time spent in the open arms of the maze, time spent in the closed arms of the maze, number of entries into the open-arms and number of entries into the closed arm of the maze. […]

Sequence of melanocortin MC4 (P32245 whole entry): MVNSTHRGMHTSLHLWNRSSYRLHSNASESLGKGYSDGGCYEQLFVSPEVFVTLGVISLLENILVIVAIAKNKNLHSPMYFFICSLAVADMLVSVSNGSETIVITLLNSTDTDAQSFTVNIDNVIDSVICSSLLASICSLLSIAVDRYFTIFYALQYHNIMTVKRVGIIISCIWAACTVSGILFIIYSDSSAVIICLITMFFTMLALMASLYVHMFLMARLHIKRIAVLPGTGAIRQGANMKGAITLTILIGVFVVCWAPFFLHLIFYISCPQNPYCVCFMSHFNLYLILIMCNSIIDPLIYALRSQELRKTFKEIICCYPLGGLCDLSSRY
Sequence of COMT (P21964 whole entry, species assumed): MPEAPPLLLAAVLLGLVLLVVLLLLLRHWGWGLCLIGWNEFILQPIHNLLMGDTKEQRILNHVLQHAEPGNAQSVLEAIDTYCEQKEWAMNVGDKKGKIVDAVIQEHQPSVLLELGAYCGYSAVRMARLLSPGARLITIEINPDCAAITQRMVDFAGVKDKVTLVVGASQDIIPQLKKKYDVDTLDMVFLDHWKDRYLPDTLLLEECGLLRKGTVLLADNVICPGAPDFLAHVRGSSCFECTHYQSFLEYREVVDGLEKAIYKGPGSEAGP
Sequence of galanin GALR2 (O43603 whole entry): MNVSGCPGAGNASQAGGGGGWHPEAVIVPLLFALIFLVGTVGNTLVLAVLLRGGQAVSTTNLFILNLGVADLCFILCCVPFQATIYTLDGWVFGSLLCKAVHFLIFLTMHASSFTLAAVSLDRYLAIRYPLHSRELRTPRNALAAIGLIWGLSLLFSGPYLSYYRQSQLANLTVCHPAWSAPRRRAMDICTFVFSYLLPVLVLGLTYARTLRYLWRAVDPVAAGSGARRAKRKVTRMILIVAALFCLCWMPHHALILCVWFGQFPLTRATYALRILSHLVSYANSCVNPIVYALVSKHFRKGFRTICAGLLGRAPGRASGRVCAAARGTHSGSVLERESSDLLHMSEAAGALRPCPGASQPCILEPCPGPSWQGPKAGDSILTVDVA
Sequence of Histamine H3 (Q9Y5N1 whole entry): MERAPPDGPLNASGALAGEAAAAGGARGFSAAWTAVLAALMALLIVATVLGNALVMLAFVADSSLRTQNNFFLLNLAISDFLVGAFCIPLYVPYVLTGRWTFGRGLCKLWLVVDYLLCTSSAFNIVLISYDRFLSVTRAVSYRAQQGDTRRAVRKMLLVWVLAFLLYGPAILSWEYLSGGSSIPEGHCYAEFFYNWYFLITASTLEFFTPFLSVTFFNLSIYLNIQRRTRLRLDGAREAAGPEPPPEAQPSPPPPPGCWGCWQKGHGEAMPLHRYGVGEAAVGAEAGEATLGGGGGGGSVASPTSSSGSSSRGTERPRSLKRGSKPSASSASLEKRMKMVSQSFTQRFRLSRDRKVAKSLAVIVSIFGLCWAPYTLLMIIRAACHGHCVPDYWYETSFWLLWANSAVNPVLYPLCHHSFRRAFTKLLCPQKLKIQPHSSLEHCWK
Sequence of DA transporter (Q01959 whole entry, species assumed): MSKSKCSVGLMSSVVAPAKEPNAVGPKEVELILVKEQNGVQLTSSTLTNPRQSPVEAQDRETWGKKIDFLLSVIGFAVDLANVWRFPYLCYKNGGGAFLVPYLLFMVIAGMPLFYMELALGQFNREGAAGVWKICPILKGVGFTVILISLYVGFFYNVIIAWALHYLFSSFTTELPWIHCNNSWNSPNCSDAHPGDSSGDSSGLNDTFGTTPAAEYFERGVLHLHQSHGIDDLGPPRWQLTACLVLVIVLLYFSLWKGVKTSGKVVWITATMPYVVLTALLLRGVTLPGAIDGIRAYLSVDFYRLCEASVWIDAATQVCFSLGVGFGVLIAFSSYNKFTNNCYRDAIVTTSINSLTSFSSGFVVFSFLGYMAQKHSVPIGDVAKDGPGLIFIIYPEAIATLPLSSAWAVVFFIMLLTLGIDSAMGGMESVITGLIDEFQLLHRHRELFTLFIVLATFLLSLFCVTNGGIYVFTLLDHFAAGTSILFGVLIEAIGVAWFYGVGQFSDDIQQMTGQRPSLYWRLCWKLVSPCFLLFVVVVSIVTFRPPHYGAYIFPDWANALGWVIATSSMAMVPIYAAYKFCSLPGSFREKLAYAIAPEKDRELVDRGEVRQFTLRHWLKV

## C=C(C)[C@@H]1CC[C@]2(C(=O)O)CC[C@]3(C)C(CC[C@@H]4[C@@]5(C)CC[C@H](O)C(C)(C)[C@@H]5CC[C@]43C)[C@@H]12 (stereo partly shown) [betulinic acid, Betulinic acid]
[1]
  affected by betulinic acid: none of the following neurotransmitters or proteins were affected
[2]
  affected by betulinic acid: none of the following neurotransmitters or proteins were affected
[3]; 1 mg/kg in peanut oil orally (gavage), 45-60 min after treatment (FIG. 4)
  startle response in the presence of the fear-cue: significantly attenuated the startle response in the presence of the fear-cue
[3]; 1 mg/kg orally (gavage), vs peanut oil control (FIG. 4)
  difference in startle amplitude (presence minus absence of the fear cue): much lower
[4]
  affected by betulinic acid: none of the following neurotransmitters or proteins were affected
[5]
  affected by betulinic acid: none of the following neurotransmitters or proteins were affected
[6]
  affected by betulinic acid: none of the following neurotransmitters or proteins were affected
[7]
  affected by betulinic acid: none of the following neurotransmitters or proteins were affected
[8]
  affected by betulinic acid: none of the following neurotransmitters or proteins were affected
[9]
  time spent on the open arms of the plus-maze: spent significantly more time on the open arms of the plus-maze
